Assay results published in patent publication US11202792B2, “CD99 inhibitors and their uses” (GEORGETOWN UNIVERSITY, priority 2016, dated 2021).
Like-named read-outs stand apart in the source and are kept apart here.

Tests used:
[1] = tested on: U-2-OS OS cells; assay: Cell viability IC50, U-2-OS; assay type: cell-based; conditions: Homo sapiens, U2OS
Method: (§1) The plate was installed into the RTCA system, and the electrical impedance (represented as cell index) was measured every 10 min.
(§2) To investigate the relationship between the level of CD99 expression and drug sensitivity, the endogenous expression of CD99 was determined in a panel of 9 ES and 13 non-ES cell lines. The recombinant purified CD99-ECD protein was used to generate standard curves for immunoquantification of CD99 expression by immunoblotting (FIGS. 6B and 6C).

[2] = tested on: RH1 rhabdomyosarcoma cells; assay: Cell viability IC50, RH1; assay type: cell-based; conditions: Homo sapiens, RH1 (RM)
Method: as §1, §2

[3] = tested on: TC-CD99-shRNA #1 cells; conditions: mean ± SD
Method: as §1
(§3) TC-CD99-shRNA clones (TC-CD99-shRNA #1 and TC-CD99-shRNA #2) were established after selection in neomycin (500 μg/ml) (Sigma-Aldrich). The expression of DCK and CD99 was suppressed transiently by using a validated small interfering RNA (siRNA) duplexes targeting coding region (Invitrogen (Carlsbad, Calif.); #s186 and #s8768, respectively). Silencer™ Select Negative Control No. 2 siRNA (Invitrogen) was used as the control. Cells were transfected with DCK or CD99 or control siRNA oligonucleotides using X-tremeGene siRNA transfection reagent (Roche Diagnostics (Basel, Switzerland)) according to the manufacturer's protocol. The cells were analyzed for DCK and CD99 knockdown after 45 or 72 h by immunoblotting.
(§4) Two stable transfectants of TC-71 cell line, TC-CD99-shRNA #1 and TC-CD99-shRNA #2, were generated by using plasmids expressing either a shRNA targeting the 3′ untranslated region (UTR) of CD99 or a scrambled shRNA control.

[4] = tested on: TC-CD99-shRNA #2 cells; conditions: mean ± SD
Method: as §1, §3, §4

[5] = tested on: RDES ES cells; assay: Cell viability IC50, RDES; assay type: cell-based; conditions: Homo sapiens, RD-ES
[6] = tested on: IOR/MOS OS cells; assay: Cell viability IC50, IOR/MOS; assay type: cell-based; conditions: Homo sapiens
Method: as §1, §2

[7] = tested on: SAOS-2 OS cells; assay: Cell viability IC50, SAOS-2; assay type: cell-based; conditions: Homo sapiens
Method: as §1, §2

[8] = tested on: TC-71, 6647 and RDES ES cells; assay: Cell cycle and cell death analysis by flow cytometry, ES cells; assay type: cell-based, human; conditions: 48 h; for hypodiploid sub-G1 peak: only in ES cells compared with U-2 OS
Method: For the evaluation of cell cycle, cell cultures were incubated with 10 μmol/L bromodeoxyuridine (BrdU) (Sigma-Aldrich) for 1 h in a CO2 atmosphere at 37° C. Harvested cells were fixed in ice-cold 70% ethanol for 30 min. After DNA denaturation with 2 N HCl for 30 min at room temperature, cells were washed with 0.1 M Na2B4O7, pH 8.5 and processed for indirect immunofluorescence staining, using α-BrdU (BD Biosciences (San Jose, Calif.)) diluted 1:4 as a primary MAb and α-mouse FITC (1:100—Thermo Scientific (Waltham, Mass.)) as a secondary antibody. After treatment with 0.5 mg/ml RNase and staining with 20 μg/ml propidium iodide, cells were and analyzed by flow cytometry (FACSCalibur; Becton Dickinson (Franklin Lakes, N.J.)) for cell cycle evaluation and for assessing cell death by DNA content analysis.

[9] = tested on: leukemia cell lines MOLT-4 and Jurkat; assay: Cell viability IC50 panel, leukemia cell lines; assay type: cell-based; conditions: Homo sapiens
Method: as §1
Therefore, two leukemia cell lines, MOLT-4 and Jurkat, were included as positive controls in this experiment.

[10] = 48 h, read-out: average IC50 concentration for leukemia cell lines
[11] = MOLT-4 and Jurkat, read-out: IC50, leukemia cell lines

With `Nc1nc(Cl)nc2c1ncn2[C@@H]1O[C@H](CO)[C@@H](O)[C@@H]1F` [clofarabine] the IC50 [1] was greater than 30000 nM, the IC50 [2] was 200 nM and the “Fold changes in IC50 compared with TC-71 parental cells” value (“Fold changes in IC50” below) [3] was 3.70. The “Fold changes in IC50” value ([3]; listed as Clofarabine) was 3.70 ± 2.98 (n = 5), the “Fold changes in IC50” value [4] was 1.63 and the “Fold changes in IC50” value ([4]; listed as Clofarabine) was 1.63 ± 0.54 (n = 5). It also gave an IC50 [5] of 490 nM, an IC50 [6] greater than 10000 nM and an IC50 [7] greater than 30000 nM. The “hypodiploid sub-G1 peak” value [8] was “significant increase”, the IC50 [9, 10] was 180 ± 10 nM and the IC50 [9, 11] was less than 1000 nM.
With `Nc1nc(Cl)nc2c1ncn2[C@H]1C[C@H](O)[C@@H](CO)O1` [cladribine] the IC50 [1] was greater than 30000 nM, the IC50 [2] was 900 nM and the “Fold changes in IC50” value [3] was 2.85. The “Fold changes in IC50” value ([3]; listed as Cladribine) was 2.85 ± 1.13 (n = 4), the “Fold changes in IC50” value [4] was 2.35 and the “Fold changes in IC50” value ([4]; listed as Cladribine) was 2.35 ± 1.43 (n = 2). It also gave an IC50 [5] of 660 nM, an IC50 [6] greater than 30000 nM and an IC50 [7] greater than 30000 nM. The cell cycle effect ([8]; ES cells) was “cell cycle arrest in S phase”, the “hypodiploid sub-G1 peak” value [8] was “significant increase” and the IC50 [9, 10] was 340 ± 30 nM. The IC50 [9, 11] was less than 1000 nM.
